Laboratory results from ChEMBL document CHEMBL5390230, “Imidazole-based sphingosine-1-phosphate transporter Spns2 inhibitors” (Bioorg Med Chem Lett, 2023).

The compounds below were run against T1, Sphingosine-1-phosphate transporter SPNS2 (Homo sapiens) (UniProt Q8IVW8) (assay: Inhibition of Spns2 in human HeLa cells assessed as decrease in extracellular S1P level at 3 uM by LC/MS analysis relative to control).
T1 sequence (whole entry): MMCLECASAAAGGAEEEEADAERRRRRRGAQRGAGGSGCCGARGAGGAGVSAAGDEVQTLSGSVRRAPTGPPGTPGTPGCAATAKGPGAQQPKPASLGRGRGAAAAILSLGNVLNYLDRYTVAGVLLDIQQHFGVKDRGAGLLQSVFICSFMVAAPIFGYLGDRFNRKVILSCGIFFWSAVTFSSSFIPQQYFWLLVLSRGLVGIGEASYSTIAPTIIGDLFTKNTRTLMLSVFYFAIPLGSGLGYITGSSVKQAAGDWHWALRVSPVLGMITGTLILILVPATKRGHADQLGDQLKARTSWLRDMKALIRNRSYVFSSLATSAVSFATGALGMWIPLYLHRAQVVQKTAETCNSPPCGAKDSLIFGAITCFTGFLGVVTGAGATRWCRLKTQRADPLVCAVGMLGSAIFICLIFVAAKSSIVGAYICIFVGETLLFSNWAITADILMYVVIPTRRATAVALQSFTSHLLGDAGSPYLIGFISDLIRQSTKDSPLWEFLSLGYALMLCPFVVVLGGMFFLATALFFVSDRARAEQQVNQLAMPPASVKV
Type: cell-based
Compound `CCCCCCCCc1nc(-c2ccc(-n3cc[n+](C)c3)cc2)no1` has an inhibition of 26%.
`CCCCCCCCc1nc(-c2ccc(-n3ccnc3)cc2)no1` showed an inhibition of 22%.
`CCCCCCCCCCc1nc(-c2ccc(-n3cc[n+](C)c3)cc2)no1` gave an inhibition of 41%.
For `CCCCCCCCCCCc1nc(-c2ccc(-n3cc[n+](C)c3)cc2)no1`, the inhibition was 3%.
`CCCCCCCc1nc(-c2ccc(-n3cc[n+](C)c3)cc2)no1` was tested, and the inhibition was 0%.
Compound `CCCCCCCCCc1nc(-c2ccc(-n3ccnc3)cc2)no1` has an inhibition of 28%.
Compound `CCCCCCCc1nc(-c2ccc(-n3ccnc3)cc2)no1` has an inhibition of 12%.
`CCCCCCCCCc1nc(-c2ccc(-n3cc[n+](C)c3)cc2)no1` showed an inhibition of 47%.
`CCCCCCCCCCc1nc(-c2ccc(-n3ccnc3)cc2)no1` was tested, and the inhibition was 33%.
In the case of `CCCCCCCCCCCc1nc(-c2ccc(-n3ccnc3)cc2)no1`, the inhibition is reported as 25%.

These compounds were tested against T1, Sphingosine-1-phosphate transporter SPNS2 (Homo sapiens) (assay: Inhibition of Spns2 in human HeLa cells assessed as decrease in extracellular S1P level at 2 uM by LC/MS analysis relative to control).
Type: cell-based
`CCCCCCCCCCc1ccc(-c2cn(CC(=O)OC(C)C)c(CCCN)n2)cc1` showed an inhibition of 27%.
`CCCCCCCCCCc1ccc(-c2cn(CCCOC)c(CCCN)n2)cc1` was tested, and the inhibition was 11%.
`CCCCCCCCCCc1ccc(-c2cn(C)c(CCCN)n2)cc1` gave an inhibition of 51%.
With `CCCCCCCCCCc1ccc(-c2noc(CCCN)n2)cc1` the inhibition was 67%.
`CCCCCCCCCCc1ccc(-c2cn(CC)c(CCCN)n2)cc1` showed an inhibition of 51%.
Work on `CCCCCCCCCCc1ccc(-c2cn(CC(N)=O)c(CCCN)n2)cc1` yielded an inhibition of 10%.
Compound `CCCCCCCCCCc1ccc(-c2cn(CCC)c(CCCN)n2)cc1` has an inhibition of 7%.

What follows are compounds tested against T2, Sphingosine-1-phosphate transporter SPNS2 (Homo sapiens, UniProt Q8IVW8) (assay: Inhibition of Spns2 in human HeLa cells decrease in extracellular S1P level by LC/MS method).
T2 sequence (Q8IVW8 whole entry): T1 sequence (whole entry)
Type: cell-based
Work on `CCCCCCCCCCc1ccc(-c2cn(C)c(CCCN)n2)cc1` yielded an IC50 of 2820 nM.
Work on `CCCCCCCCCCc1ccc(-c2cn(CC)c(CCCN)n2)cc1` yielded an IC50 of 1400 nM.
